According to patent publication US20250051762A1, “PLATFORM USING DNA-ENCODED SMALL MOLECULE LIBRARIES AND RNA SELECTION TO DESIGN SMALL MOLECULES THAT TARGET RNA” (University of Florida Research Foundation, Incorporated, priority 2021, published 2025):

Legend:
3×3 ILL = assay: 2DCS selection of microarray-immobilized compounds with 32P-labeled 3×3 ILL, Hit-StARTS analysis of RNA-seq; format: binding; details: Zobs >4
Description: The interaction landscape for the ten representative DEL compounds emerging from the FACS screen were then defined by 2DCS (22). In 2DCS, small molecules are site-specifically conjugated to a microarray surface and then probed for binding to an RNA library under highly stringent conditions (FIGS. 2-B & S6). That is, the array is co-incubated with a radioactively labeled RNA library and an excess of competitor oligonucleotides that mimic regions common to all library members. […] To enable site-specific immobilization of compounds 1-10, a C-terminal alkyne handle was installed for CuAAC click (30) coupling to azide-displaying array surfaces. Installation of the alkyne was accomplished by coupling of bromoacetic acid onto rink amide resin followed by nucleophilic displacement with propargylamine prior to the synthesis of the SPDEL compounds (FIG. 2A).
All ten compounds bound to the 3×3 ILL under the highly stringent conditions described above, almost all dose-dependently (FIG. 2B). The RNAs bound to each small molecule were harvested, reverse transcribed into DNA, and sequenced by RNA-seq. The resulting data set was statistically analyzed by using High Throughput Structure-Activity Relationships Through Sequencing (Hit-StARTS) (31) in which the relative frequency of each selected RNA is compared to the frequency of that RNA in the starting library (pooled population comparison). (31) The statistical significance of the enrichment of selected RNAs is quantified by Zobs, which correlates with affinity and selectivity. (31) Here, a cut-off of Zobs >4 was employed, which was empirically determined from measured affinities via evaluation of compound 9 binding with potential RNA motifs extracted from the 2DCS (FIGS. 2-B, 13, & 14). […] This cut-off afforded, on average, 60±40 (range: 6-155) preferred, or privileged, RNA 3D folds for each compound. Compound 6 bound to largest number of RNA targets (n=155) while compound 9 bound the fewest (n=6) (FIG. 14). […]

[1] = tested on: MCF-10a cells that express WT pri-miR-27a; assay: Migration of MCF-10a cells expressing WT pri-miR-27a; format: cell-based, human
Description: (§1) MCF-10a cells were transfected with plasmids to express pri-miR-27a and mutant pri-miR-27a in 12- or 24-well plates with Lipofectamine 2000 per the manufacturer's protocol. For treatment of compounds, stocks were diluted in growth medium and added to cells for 48 h. The miRCURY miR-27a LNA inhibitor (QIAGEN, Cat #339121) was used as a positive control by diluting in growth medium to a final concentration of 1 nM. The miRCURY LNA Negative Control (QIAGEN, Cat #YI00199007-DDA) was used as a negative control, which has also diluted in growth medium to a final concentration of 1 nM.
(§2) Migration assay: MDA-MB-231 cells were grown in 60 mm diameter dishes and treated as described in “Cell culture and compound treatment” for 12 h. The medium was then removed and replaced with growth medium lacking FBS but with the same concentration of compound. After 12 h of serum starvation, the cells were detached and seeded to ThinCert™ (GBO) 24-well hanging inserts with 8 μm pores (˜5×10^4 cells per insert). Fresh growth medium with FBS was dispended in a 24-well plate (600 μL each well), and the ThinCert™ hanging inserts containing cells were then placed into the wells. After incubating for 24 h, the growth medium in the inserts was removed, and the remaining cells were washed twice with 1×DPBS. […] The remaining cells were then imaged by microscopy and counted for quantification (3 fields of view per sample).

[2] = tested on: MCF-10a cells expressing mutant pri-miR-27a; assay: Migration of MCF-10a cells expressing mutant pri-miR-27a; format: cell-based, human; details: forced expression of mutated pri-miR-27a
Description: as §1, §2

C#CCN(CC(N)=O)C(=O)C[C@H](Cc1c[nH]c2ccccc12)NC(=O)[C@@H]1C[C@H](NC(=O)Cn2c(=O)[nH]c3ccccc3c2=O)CN1 [Compound 9]
number of RNA motifs bound that are unique to the compound (3×3 ILL): 2 | migration [1]: reduced migration | rescue of migratory phenotype [2]: did not inhibit biogenesis of the mutated pri-miR-27a in MCF-10A (FIG. 3B) or rescue the migratory phenotype
